Experimental data published in US12390467B2, “Necroptosis inducers or autophagy inhibitors or a combination thereof” (The University of Toledo, priority 2018, dated 2025).

Columns and labels:
Format in all cases: cell-based
[1] = biological target: T1, P-gp (ABCB1), DU145TXR prostate cancer cells (Homo sapiens, UniProt P08183); assay: Calcein AM assay for P-gp modulation; conditions: concentration dependent
T1 construct: endogenous in cells; host or cells: DU145TXR prostate cancer cells
Experimental: Ability of P-gp to efflux Calcein AM is used to identify the molecules which interfere with P-gp transporter activity. About 10000 cells of DU145TXR prostate cancer cells were seeded in each well in 96 well plates and allowed to grow until confluency for 4-5 days. Then media was replaced with phenol red free RPMI media and cells were treated with indicated concentrations of TPH104s and 1 μg/mL of Calcein AM. Fluorescence measured after 60 minutes with excitation at 485/20 nm and at emission 535/20 nm using the BioTek Cytation 5 imaging multi-mode reader (Bio-Tek, Winooski, VT). DMSO (0.5% v/v) was used as the vehicle, and 15 μM of Pgp inhibitor SMU 45 was used as a positive control. (n=6 in each trial).

[2] = biological target: T2, BCRP (ABCG2), MCF-7 M100 breast cancer cells (Homo sapiens, UniProt Q9UNQ0); assay: Hoechst 33342 assay for BCRP modulation; conditions: concentration dependent
T2 construct: endogenous in cells; host or cells: MCF-7 M100 breast cancer cells
T2 sequence (Q9UNQ0 whole entry): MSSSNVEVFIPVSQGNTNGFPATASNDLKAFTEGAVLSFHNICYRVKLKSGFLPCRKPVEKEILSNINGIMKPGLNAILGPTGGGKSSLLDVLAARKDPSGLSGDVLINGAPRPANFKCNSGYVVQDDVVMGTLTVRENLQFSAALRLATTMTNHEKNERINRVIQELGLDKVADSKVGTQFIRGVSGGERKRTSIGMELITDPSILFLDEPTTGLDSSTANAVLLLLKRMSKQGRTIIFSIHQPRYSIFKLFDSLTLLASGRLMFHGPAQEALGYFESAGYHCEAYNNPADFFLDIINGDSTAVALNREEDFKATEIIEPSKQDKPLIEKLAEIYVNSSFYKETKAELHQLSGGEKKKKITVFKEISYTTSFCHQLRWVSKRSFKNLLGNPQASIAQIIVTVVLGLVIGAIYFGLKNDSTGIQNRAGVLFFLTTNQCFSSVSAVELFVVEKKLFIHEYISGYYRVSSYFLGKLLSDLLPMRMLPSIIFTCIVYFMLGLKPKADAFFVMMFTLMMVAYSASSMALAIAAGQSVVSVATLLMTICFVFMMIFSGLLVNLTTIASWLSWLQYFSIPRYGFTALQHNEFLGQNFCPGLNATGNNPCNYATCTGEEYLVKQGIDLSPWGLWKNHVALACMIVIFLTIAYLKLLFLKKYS
Experimental: Ability of BCRP to efflux nuclear stain Hoechst 33342 was used to identify the molecules which interfere with BCRP transporter activity. About 14000 cells of MCF-7 M100 breast cancer cells were seeded in each well in 96 well plates and allowed to grow until confluency for 4-5 days. Then media was replaced with phenol red free RPMI media and cells were treated with indicated concentrations of TPH104s and 5 μg/mL of Hoechst 33342. Fluorescence measured after 60 minutes with excitation at 361/20 nm and at emission 497/20 nm using the BioTek Cytation 5 imaging multi-mode reader (Bio-Tek, Winooski, VT). DMSO (0.5% v/v) was used as the vehicle, and 0.5 μM of BCRP inhibitor, Ko143 was used as a positive control and 15 μM of P-gp modulator, verapamil was used as negative control.

TNBC cell lines = assay: Cytotoxicity screening (MTT), TNBC cell lines overall; conditions: classification of Table 1 cytotoxicity data
From the text: To this end, several commercial databases were searched, and 17 similar molecules from the VitasM database were retrieved with considerable structural diversity in terms of the substitution on the aryl ring A attached to the thienopyrimidine scaffold and aryl ring B attached to hydrazino moiety. Further, the biological evaluation of the 17 molecules sheds light on the structural features deemed important for the selective cytotoxicity shown by this class of molecules. With this understanding, the 17 molecules were subjected to a screening protocol comprising of two TNBC, two non-TNBC, and one normal cell lines.
(§1) The following cancer and non-cancer cell lines were used in the initial cytotoxicity screening of the TPH104 compounds: triple negative breast cancer (TNBC): MDA-MB468, MDA-MB 231, and BT-20; non-TNBC: MCF-7 and ZR-75-1; ovarian: Ov2008; prostate: DU145; colon: HCT-116, S1, and LOVO; lung: H460; normal kidney: HEK-293; normal breast: HMEC; and normal colon: CRL-1459. All cells were cultured in Dulbecco's modified Eagle medium (DMEM), supplemented with 10% fetal bovine serum (FBS), and 1% penicillin/streptomycin (P/S). Cells were allowed to grow as adherent monolayers in T25 flasks in a humidified incubator with 5% CO2 at 37° C. for a period of 24 h, unless otherwise specified for certain experiments.
(§2) The MTT assay was used to determine the cytotoxicity of all of the compounds. Briefly, in a 96-well flat-bottom cell culture plate, the cells were seeded at a density between 3-5×10^3 cells/well (180 μl in each well) and incubated for 24 h (a hemocytometer was used for cell counting). The next day, the cells were incubated with different concentrations of the nine compounds (0, 0.1, 0.3, 1, 3, 10, 30, and 100 μM) for 72 h. After 72 h, 20 μl of 5 mg/ml of 3-(4,5-dimethylthiazol-2-yl)-2,5-diphenyltetrazolium bromide (MTT) was added to the plate and incubated with the cells for 3 h at 37° C. In this experiment, the living cells will reduce the soluble MTT dye to non-soluble purple formazan crystals. Following incubation, the media containing MTT removed via suction and 100 μL of 100% dimethyl sulfoxide (DMSO) was added to dissolve the formazan crystals. Subsequently, the plate was shaken for 2 minutes and the absorbance was measured at a wavelength of 570 nm using a SpectraMax iD3 Multi-Mode Microplate Reader (Molecular Devices, Sunnyvale, CA). The IC50 values of each compound were calculated and used to determine the selectivity ratio (IC50 in normal cells/IC50 in cancer cells) of each compound as previously described. Based on the results obtained from these experiments, the compound TPH104, which had the lowest IC50 value, was selected for further experiments.

[3] = system: MDA-MB231 (TNBC cell line); assay: MTT cell viability assay, MDA-MB231; conditions: Homo sapiens, MDA-MB-231, 72 h, read-out: IC50 ± SD, MDA-MB231
Experimental: as §1, §2

[4] = system: MCF-7 (non-TNBC cell line); assay: MTT cell viability assay, MCF-7; conditions: Homo sapiens, MCF7, 72 h, read-out: IC50 ± SD, MCF-7
Experimental: as §1, §2

[5] = system: ZR-75-1 (non-TNBC cell line); assay: MTT cell viability assay, ZR-75-1; conditions: Homo sapiens, ZR-75-1, 72 h, read-out: IC50 ± SD, ZR-75-1
Experimental: as §1, §2

[6] = system: normal human mammary epithelial cells (HMEC); assay: MTT cell viability assay, HMEC; conditions: Homo sapiens, HMEC; MTT, 72 h; Normal; read-out: IC50 ± SD, HMEC
Experimental: as §1, §2

[7] = system: MDA-MB468 (TNBC cell line); assay: MTT cell viability assay, MDA-MB468; conditions: Homo sapiens, MDA-MB-468, 72 h, read-out: IC50 ± SD, MDA-MB468
Experimental: as §1, §2

T1 sequence (P08183 whole entry): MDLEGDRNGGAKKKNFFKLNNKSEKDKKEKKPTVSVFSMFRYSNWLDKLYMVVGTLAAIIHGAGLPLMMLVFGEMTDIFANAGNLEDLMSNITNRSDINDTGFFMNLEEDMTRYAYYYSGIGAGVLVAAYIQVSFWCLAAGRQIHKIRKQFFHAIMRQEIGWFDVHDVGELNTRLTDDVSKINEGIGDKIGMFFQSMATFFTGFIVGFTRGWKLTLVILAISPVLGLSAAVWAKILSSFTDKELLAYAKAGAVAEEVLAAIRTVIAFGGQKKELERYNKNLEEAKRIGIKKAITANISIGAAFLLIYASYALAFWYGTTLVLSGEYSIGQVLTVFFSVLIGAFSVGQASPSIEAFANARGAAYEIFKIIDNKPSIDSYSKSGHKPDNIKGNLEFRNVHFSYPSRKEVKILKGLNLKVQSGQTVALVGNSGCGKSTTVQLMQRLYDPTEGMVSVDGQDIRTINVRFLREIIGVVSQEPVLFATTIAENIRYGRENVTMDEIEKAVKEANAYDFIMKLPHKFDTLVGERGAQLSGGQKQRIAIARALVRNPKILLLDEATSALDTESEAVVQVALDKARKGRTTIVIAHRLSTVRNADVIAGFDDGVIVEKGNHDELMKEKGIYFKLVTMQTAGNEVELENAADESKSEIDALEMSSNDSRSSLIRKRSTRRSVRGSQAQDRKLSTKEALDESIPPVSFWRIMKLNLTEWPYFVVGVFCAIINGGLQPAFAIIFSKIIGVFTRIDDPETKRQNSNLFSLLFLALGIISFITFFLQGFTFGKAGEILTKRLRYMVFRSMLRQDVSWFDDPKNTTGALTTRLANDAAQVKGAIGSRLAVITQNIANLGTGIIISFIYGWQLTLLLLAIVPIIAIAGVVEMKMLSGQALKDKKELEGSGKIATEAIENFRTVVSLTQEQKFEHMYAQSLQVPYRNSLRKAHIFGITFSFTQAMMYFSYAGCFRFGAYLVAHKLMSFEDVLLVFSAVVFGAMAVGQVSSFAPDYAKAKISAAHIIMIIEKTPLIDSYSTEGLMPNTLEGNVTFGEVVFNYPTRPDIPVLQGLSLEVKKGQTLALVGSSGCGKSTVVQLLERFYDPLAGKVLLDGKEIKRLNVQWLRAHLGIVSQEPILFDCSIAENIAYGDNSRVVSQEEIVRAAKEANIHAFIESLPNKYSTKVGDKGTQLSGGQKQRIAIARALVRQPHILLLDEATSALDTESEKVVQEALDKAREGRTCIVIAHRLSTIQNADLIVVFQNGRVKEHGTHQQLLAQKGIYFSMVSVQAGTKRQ

- efflux function of ABCB1 [1]: blocking the efflux function
- efflux function of ABCG2 [2]: blocking the efflux function
- IC50 [3]: 440 ± 210 nM
- IC50 [4]: 2730 ± 1020 nM
- IC50 [7]: 290 ± 10 nM
SMILES: Cc1ccc(-c2csc3ncnc(N/N=C/c4ccc(Br)cc4O)c23)cc1 [TPH104m]
- potency compared to TPH104 (TNBC cell lines): comparable potency to that of TPH104
- IC50 [5]: > 100000 nM
- IC50 [6]: > 100000 nM
